From patent US5077035A, “Radioiodinated benzovesamicol analogs for cholinergic nerve mapping” (priority 1990, dated 1991)
Values belong to the molecule of their own block, whether it stands above or below them.

Key:
[1] = tested on: vesicular sequestration of acetylcholine; settings: cited from earlier work
[2] = tested on: central cholinergic neurons; assay: Brain distribution of 5-[125I]iodobenzovesamicol in mice, control and blocked (Example 10, Table III); type: in vivo, CD-1 mice
Description: (§1) Radioactive compound 13 as prepared above in Example 1 was dissolved in ethanol/0.005M sodium acetate (1/9) buffer (pH 4.5) at 1 mCi/ml and 10 μCi of the solution was administered intravenously to lightly etherized CD-1 mice. Animals were sacrificed at various time points after injection. Samples of the brain and other tissues were excised, weighed, and counted. As shown below in Table III, the ratios at 4 hours are consistent with the regional distribution pattern of central cholinergic neurons. […] | ^a N = 5 per group. Mice (CD1) weighed 19-21 g. Concentrations are | normalized to a 20 g mouse. […] | prior to i.v. tracer injection; all amimals were killed 4 h after tracer | injection. Controls received an equal volume of vehicle. In vivo

[3] = as above; type: in vivo, CD-1 mice; settings: mouse, iv, 10 uCi, normalized to a 20 g mouse
Description: as §1

[4] = tested on: cholinergic neurons; assay: Tissue distribution of radiotracer in mouse brain and tissues 4 h after intravenous injection (Example 9, Table II); settings: 4 h after i.v. injection
[5] = Physiological activity of the enantiomers
[6] = tested on: cholinergic neurons; assay: Temporal pattern of distribution in mouse brain, 4 to 24 h (FIGS. 3 and 4); type: in vivo, female CD-1 mice
[7] = tested on: striatum; assay: In vivo autoradiography in rat; settings: 90 min after i.v. injection
Description: injection. Controls received an equal volume of vehicle. In vivo
autoradiography in rat 90 min after i.v. injection of 5[^125 I]IBVM

[8] = tested on: cholinergic neurons; assay: Blocking of tracer accumulation by pretreatment with unlabeled (-)-vesamicol; settings: i.p.
[9] = in vivo; settings: mouse, iv
[10] = Blocked: (±)-vesamicol 0.53 mg/kg, ip, 10 min prior, 4 h after i.v. tracer
[11] = Control, 4 h after i.v. injection
[12] = pretreatment with cold (±)-vesamicol 0.53 mg/kg, ip
[13] = ± S.D., normalized to a 25 g mouse

Molecule: O[C@@H]1CCCC[C@H]1N1CCC(c2ccccc2)CC1 (relative stereo) [Vesamicol, trans-2-(4-phenylpiperidino)-cyclohexanol]
Inhibition of vesicular sequestration of acetylcholine (in words) [1]: potent inhibitor of the vesicular sequestration of acetylcholine

Molecule: O[C@@H]1Cc2cccc([125I])c2C[C@H]1N1CCC(c2ccccc2)CC1 [[^125 I]-(-)-IBVM]
Tissue ratio cortex/cerebellum [2, 10]: 2.9
Tissue ratio striatum/cerebellum [2, 10]: 8.2
Tissue ratio cortex/cerebellum [2, 11]: 5.6
Tissue ratio striatum/cerebellum [2, 11]: 15.8
Change of cerebellum accumulation of radioactivity [2, 12]: -8%
Change of striatal and cortical accumulation of radioactivity [2, 12]: -53%
tissue uptake at 4 h ([3]; blood, Blocked: (±)-vesamicol 0.53 mg/kg, ip, 10 min prior, 4 h after i.v. tracer, read-out: Concentration, blood): 0.45 ± 0.1 %ID/g
tissue uptake at 4 h ([3]; blood, Control, 4 h after i.v. injection, read-out: Concentration, blood): 1.01 ± 0.7 %ID/g
tissue uptake at 4 h ([3]; cerebellum, Blocked: (±)-vesamicol 0.53 mg/kg, ip, 10 min prior, 4 h after i.v. tracer, read-out: Concentration, cerebellum): 0.24 ± 0.1 %ID/g
tissue uptake at 4 h ([3]; cerebellum, Control, 4 h after i.v. injection, read-out: Concentration, cerebellum): 0.26 ± 0.06 %ID/g
tissue uptake at 4 h ([3]; cortex, Blocked: (±)-vesamicol 0.53 mg/kg, ip, 10 min prior, 4 h after i.v. tracer, read-out: Concentration, cortex): 0.69 ± 0.13 %ID/g
tissue uptake at 4 h ([3]; cortex, Control, 4 h after i.v. injection, read-out: Concentration, cortex): 1.46 ± 0.25 %ID/g
tissue uptake at 4 h ([3]; striatum, Blocked: (±)-vesamicol 0.53 mg/kg, ip, 10 min prior, 4 h after i.v. tracer, read-out: Concentration, striatum): 1.97 ± 0.35 %ID/g
tissue uptake at 4 h ([3]; striatum, Control, 4 h after i.v. injection, read-out: Concentration, striatum): 4.12 ± 0.65 %ID/g
Concentration ratio [L. atrium]/[L. ventricle] [4]: 5.5
Concentration ratio [cortex]/[blood] [4]: 6.2
Concentration ratio [cortex]/[cerebellum] [4]: 11.1
Concentration ratio [striatum]/[cerebellum] [4]: 27.2
% of dose injected, whole brain ([4]; normalized to a 25 g mouse): 1.03 ± .07 % OF DOSE INJECTED
Concentration, cerebral cortex [4, 13]: 2.56 ± .21 % DOSE/G
Physiological activity versus the other enantiomer (in words) [5]: more physiologically active than the positive
Neuronal specificity in cortex and striatum ([6]; 4-24 h, 4 h activity of (+)-enantiomer as estimate of non-neuronal binding): > 95%
Specific neuronal binding in cortex and striatum ([6]; 4 to 24 h, cerebellar concentration as approximation of non-neuronal binding): > 95%
Radioactivity in cerebral cortex and striatum over time (in words) ([6]; 4 to 24 hours following injection): remains at a high and fairly constant level
Initial striatal uptake of the two enantiomers (in words) ([6]; mouse striatum): nearly identical initial striatal uptake
Accumulation in striatum by autoradiography (in words) [7]: selective accumulation of tracer in the striatum
Lowering of 4 hour striatal and cortical accumulation ([8]; pretreatment with unlabeled (-)-vesamicol hydrochloride 605 μg/kg, 10 min prior to tracer): 65%
tissue uptake at 4 h ([9]; cerebellum): 0.23 ± 0.04 %ID/g
tissue uptake at 4 h ([9]; striatum): 6.26 ± 0.46 %ID/g

Molecule: (-)-vesamicol [reference compound]
Toxicity limitation of dose (in words) ([8]; doses larger than 605 μg/kg): larger doses of (-)-vesamicol could not be injected due to toxicity limitations
Potency relative to (+)-vesamicol ([1]; enantioselectivity versus (+)-vesamicol): 25 times more potent

Results, then the molecule that gave them:

Concentration ratio [L. atrium]/[L. ventricle] [4]: 0.9
Concentration ratio [cortex]/[blood] [4]: 0.3
Concentration ratio [cortex]/[cerebellum] [4]: 2.0
Concentration ratio [striatum]/[cerebellum] [4]: 4.3
% of dose injected, whole brain ([4]; normalized to a 25 g mouse): 0.06 ± .01 % OF DOSE INJECTED
Initial striatal uptake of the two enantiomers (in words) ([6]; mouse striatum): nearly identical initial striatal uptake
Striatal washout (in words) ([6]; mouse striatum): rapidly washes out of the striatum
Striatal level within 4 hours (in words) ([6]; mouse striatum, within 4 hours): nearly absent from this tissue
tissue uptake at 4 h ([9]; cerebellum): 0.06 ± 0.01 %ID/g
tissue uptake at 4 h ([9]; cerebral cortex): 0.12 ± 0.01 %ID/g
tissue uptake at 4 h ([9]; striatum): 0.26 ± 0.04 %ID/g
Molecule: O[C@H]1Cc2cccc([125I])c2C[C@@H]1N1CCC(c2ccccc2)CC1 [[^125 I]-(+)-IBVM]

Concentration ratio [L. atrium]/[L. ventricle] [4]: 4.7
Concentration ratio [cortex]/[blood] [4]: 2.3
Concentration ratio [cortex]/[cerebellum] [4]: 5.9
Concentration ratio [striatum]/[cerebellum] [4]: 16.5
% of dose injected, whole brain ([4]; normalized to a 25 g mouse): 0.56 ± .07 % OF DOSE INJECTED
Concentration, cerebellum [4, 13]: 0.20 ± .04 % DOSE/G
Concentration, cerebral cortex [4, 13]: 1.17 ± .20 % DOSE/G
Concentration, striatum [4, 13]: 3.29 ± .52 % DOSE/G
Molecule: O[C@@H]1Cc2cccc([125I])c2C[C@H]1N1CCC(c2ccccc2)CC1 (relative stereo) [[^125 I]-(±)-IBVM, (±)-trans-2-hydroxy-5-iodo-3-(4-phenylpiperidino)tetralin]
